Test results published in patent US10053485B2, “Cytotoxic agents that preferentially target leukemia inhibitory factor (LIF) for the treatment of malignancies and as new contraceptive agents” (Evestra, Inc., priority 2015, dated 2018).

Legend:
CCRF-CEM = test: NCI-60 screen, Leukemia panel; type: cell-based; settings: Homo sapiens, 48 h
EKVX = test: NCI-60 screen, Non-Small Cell Lung Cancer panel; type: cell-based; settings: Homo sapiens, 48 h, read-out: GI50 (log10GI50) (converted)
NCI-H23 = test: NCI-60 screen, Non-Small Cell Lung Cancer panel; type: cell-based; settings: Homo sapiens, NCI-H23, 48 h
NCI-H522 = test: NCI-60 screen, Non-Small Cell Lung Cancer panel; type: cell-based; settings: Homo sapiens, NCI-H522, 48 h
COLO 205 = test: NCI-60 screen, Colon Cancer panel; type: cell-based; settings: Homo sapiens, COLO 205, 48 h
HT29 = test: NCI-60 screen, Colon Cancer panel; type: cell-based; settings: Homo sapiens, HT-29, 48 h
SNB-19 = test: NCI-60 screen, CNS Cancer panel; type: cell-based; settings: Homo sapiens, SNB-19, 48 h
U251 = test: NCI-60 screen, CNS Cancer panel; type: cell-based; settings: Homo sapiens, U-251, 48 h
MALME-3M = test: NCI-60 screen, Melanoma panel; type: cell-based; settings: Homo sapiens, 48 h
SK-MEL-2 = test: NCI-60 screen, Melanoma panel; type: cell-based; settings: Homo sapiens, SK-MEL-2, 48 h
SK-MEL-5 = test: NCI-60 screen, Melanoma panel; type: cell-based; settings: Homo sapiens, SK-MEL-5, 48 h
UACC-62 = test: NCI-60 screen, Melanoma panel; type: cell-based; settings: Homo sapiens, UACC-62, 48 h
OVCAR-4 = test: NCI-60 screen, Ovarian Cancer panel; type: cell-based; settings: Homo sapiens, OVCAR-4, 48 h
OVCAR-8 = test: NCI-60 screen, Ovarian Cancer panel; type: cell-based; settings: Homo sapiens, OVCAR-8, 48 h
SK-OV-3 = test: NCI-60 screen, Ovarian Cancer panel; type: cell-based; settings: Homo sapiens, SK-OV-3, 48 h
PC-3 = test: NCI-60 screen, Prostate Cancer panel; type: cell-based; settings: Homo sapiens, PC-3, 48 h
ACHN = test: NCI-60 screen, Renal Cancer panel; type: cell-based; settings: Homo sapiens, 48 h
MCF7 = test: NCI-60 screen, Breast Cancer panel; type: cell-based; settings: Homo sapiens, MCF7, 48 h
BT-549 = test: NCI-60 screen, Breast Cancer panel; type: cell-based; settings: Homo sapiens, BT-549, 48 h
MDA-MB-231 (TNBC cells) = test: Short term (72 h) cytotoxicity assay; type: cell-based; settings: Homo sapiens; MDA-MB-231, 72 h cytotoxicity
U87-MU (Glioma cells) = test: Short term (72 h) cytotoxicity assay; type: cell-based; settings: Glioma cell
A549 (Lung cancer) = test: Short term (72 h) cytotoxicity assay; type: cell-based, human; settings: Homo sapiens; A549, 72 h cytotoxicity
T47D breast cancer cells = test: Soft agar colony formation assay; type: cell-based, human
Experimental: Colonies of cancer cells formed in soft agar in the presence and absence of the testing compounds is a standard assay to interpret in-vitro tumorigenic potential in the basal layer. Agar was prepared by mixing 1% DNA grade agar melted and cooled to 40° C. with an equal volume of (2×) Dulbecco's Modified Eagle's Medium (DMEM) to obtain 0.5% agar that was dispersed in a 6-well plate and allowed to solidify. A total of 0.6% agar was prepared in RPMI medium and mixed together with T47D cells (0.5×10^6 cells/mL) and immediately plated on the basal layer in the presence or absence of testing compounds. The cultures were incubated at 37° C. in a CO2 incubator for 2 weeks, and colonies were stained with 0.005% crystal violet and observed under a light microscope.

[1] = tested on: human umbilical vein endothelial cells (HUVEC); test: Matrigel in vitro HUVECs tube formation assay (angiogenesis); type: cell-based
Experimental: Matrigel in vitro HUVECs tube formation assay: The tube formation assay was performed using 12-well plate coated with 100 μL Matrigel basement membrane matrix (BD Bioscience) per well and polymerized at 37° C. for 30 min. Human umbilical vascular endothelial cells (HUVECs) suspended in M199 medium containing 2% FBS were plated on the Matrigel at a density of 2×10^5 cells/well. […] After 8 h, the Matrigel-induced morphological changes were photographed and the extent of capillary tube formation was evaluated by measuring the total tube length per field.

[2] = tested on: MDM2 / P53 in MCF-7 cells; test: P53 / MDM2 levels in MCF-7 cells (FIG. 5); type: cell-based, human
[3] = tested on: SMAD phosphorylation (TGF-beta); test: Phosphorylation of SMAD; settings: through blocking TGF-beta
[4] = read-out: GI50 (log10GI50) (converted)
[5] = read-out: LC50 (log10LC50) (converted)

## C#CC(F)(F)[C@]1(O)CCC2C3CCC4=CC(=O)CCC4=C3C(c3ccc(C4CC4)cc3)C[C@@]21C (stereo partly drawn) [EC330, 17α-(1,1-difluoro-2-propyn-1-yl)-17β-hydroxy-11β-[4-p-(cyclopropyl)phenyl]estra-4,9-dien-3-one]
CCRF-CEM; [4]
  GI50: < 10 nM
CCRF-CEM; [5]
  CC50: < 10 nM
EKVX
  GI50: < 10 nM
NCI-H23; [4]
  GI50: < 10 nM
NCI-H23; [5]
  CC50: > 100000 nM
NCI-H522; [4]
  GI50: < 10 nM
NCI-H522; [5]
  CC50: < 10 nM
COLO 205; [4]
  GI50: 794 nM
COLO 205; [5]
  CC50: 8910 nM
HT29; [4]
  GI50: < 10 nM
HT29; [5]
  CC50: 692 nM
SNB-19; [4]
  GI50: 3800 nM
SNB-19; [5]
  CC50: > 100000 nM
U251; [4]
  GI50: 151 nM
U251; [5]
  CC50: 5370 nM
MALME-3M; [4]
  GI50: < 10 nM
MALME-3M; [5]
  CC50: 81.3 nM
SK-MEL-2; [4]
  GI50: 2140 nM
SK-MEL-2; [5]
  CC50: 30200 nM
SK-MEL-5; [4]
  GI50: 4680 nM
SK-MEL-5; [5]
  CC50: 43700 nM
UACC-62; [4]
  GI50: 1950 nM
UACC-62; [5]
  CC50: > 100000 nM
OVCAR-4; [4]
  GI50: 3890 nM
OVCAR-4; [5]
  CC50: > 100000 nM
OVCAR-8; [4]
  GI50: 1550 nM
OVCAR-8; [5]
  CC50: > 100000 nM
SK-OV-3; [4]
  GI50: 117 nM
SK-OV-3; [5]
  CC50: 661 nM
PC-3; [4]
  GI50: 513 nM
PC-3; [5]
  CC50: > 100000 nM
ACHN; [4]
  GI50: 1510 nM
ACHN; [5]
  CC50: > 100000 nM
MCF7; [4]
  GI50: 1230 nM
MCF7; [5]
  CC50: > 100000 nM
BT-549; [4]
  GI50: 2090 nM
BT-549; [5]
  CC50: > 100000 nM
MDA-MB-231 (TNBC cells)
  IC50: 34 nM
U87-MU (Glioma cells)
  IC50: 25 nM
A549 (Lung cancer)
  IC50: 25 nM
T47D breast cancer cells; 100 nM concentration, in words
  inhibition in the number of colonies formed: complete inhibition
T47D breast cancer cells; Homo sapiens, T47D, 5 nM concentration, read-out: inhibition in the number of colonies formed
  inhibition at 0.005 µM: 50%
[1]; 1 μM concentration, all measured time points
  tube formation: complete abrogation
[1]; FIG. 2
  angiogenesis in vitro (tube formation assay): inhibited
[2]
  P53 levels / MDM2: restore P53 levels by inhibiting MDM2
[3]
  phosphorylation of SMAD: indirectly diminish the phosphorylation of SMAD
